Reference: patent publication EP0126287B1, “Fluorinated compounds having analgesic and antiinflammatory activities” (MEDEA RESEARCH S.r.l., priority 1983, dated 1984)
Where two headings read alike, the source gives them in different places.

Assays:
[1] = test system: writhing induced by acetic acid in the rat; assay: Inhibition of writhing induced by acetic acid, analgesic ED50; assay type: in vivo; details: po
Experimental: The ED50 in the analgesic activity of MR 883, in comparison to Diflunisal, D-prppoxyphene, phenylbutazone and acetylsalicylic acid was determined according to the test of inhibition of writhing induced by acetic acid in the rat (Sofia et al., J. Pharmacol. Expt. Therap. 186, 646, 1973).

[2] = test system: carrageenin oedema in the rat paw; assay: Carrageenin oedema test (rat paw), antiinflammatory activity; assay type: in vivo; details: for Inhibition versus control / AREAS % M ± ES: 50 mg/kg p.o., 10 rats per group; for Inhibition versus control: oedema areas; for AREAS % M ± ES: control 305 ±23.7; for ED50: Rattus norvegicus, carrageenin oedema, oral, groups of 10 rats, dosages of 25.50 and 100 mg/kg
Experimental: The antiinflammatory activity of the compounds of the invention was determined according to the carrageenin oedema test in rats, in comparison with equiponderal dosages of Diflunisal (Rissly, Ness.; Proc. Soc. Exp. Biol. Med., 111, 544-547, 1962).
ED50 of MR 883 and Diflunisal were determined according to the same test. Groups of 10 rats were administered orally with the compounds at dosages of 25.50 and 100 mg/kg.

[3] = test system: writhing induced by phenylquinone administration in Swiss rats; assay: Phenylquinone writhing test, analgesic activity; assay type: in vivo; details: for No. WRITHINGS M̄ ± ES: control 24.5 ±2.2
Experimental: The analgesic activity of the compounds of the invention was determined according to the writhing test, as inhibitory activity against the writhing induced by phenylquinone administration in Swiss rats (Siegmund et al., Proc. Soc. Exp. Biol. Med. 95, 729, 1957). The analgesic activity of MR 883 was determined in comparison to the one of Diflunisal and Naproxen.

[4] = test system: rat; details: cited from earlier work
[5] = Acute toxicology: indicative LD50 in the rat; details: in vivo, ip
[6] = Qualitative solubility of the isolated product; assay type: physicochemical; details: for solubility in bicarbonate solutions: bicarbonate solution
[7] = dose 50 mg/kg, 10 animals per group
[8] = acetic acid writhing in the rat, per os, read-out: ED50

| Compound | Inhibition versus control [2] | AREAS % M ± ES [2] | % Inhibition versus control ([3]; dose 50 mg/kg) | No. WRITHINGS M̄ ± ES [3, 7] | ED50 [1, 8] | LD50 [5] | solubility in the usual organic solvents [6] | other results |
| --- | --- | --- | --- | --- | --- | --- | --- | --- |
| CC(=O)Oc1ccccc1C(=O)O [Acetylsalicylic acid] |  |  |  |  |  |  |  | ED50 ([1]; Rattus norvegicus): 330 mg/kg |
| CCC(=O)O[C@](Cc1ccccc1)(c1ccccc1)[C@H](C)CN(C)C [D-propoxyphene] |  |  |  |  |  |  |  | ED50 ([1]; Rattus norvegicus): 40 mg/kg |
| O=C(O)c1cc(-c2ccc(F)cc2F)ccc1O [Diflunisal, reference compound] | 59.6% | 123.3 ±10.1 | 82% | 4.3 ±1.6 | 45 mg/kg |  |  | ED50 [2]: 234 mg/kg; LD50 p.o. [4]: about 750 mg/kg |
| O=C(O)C(O)c1ccc(-c2ccc(F)cc2F)cc1 (centres unmarked) [MR 864, 2-Hydroxy-2-[p-(2",4"-difluorophenyl)phenyl]acetic acid] | 42.7% | 174.7 ±20.7 | 85% | 3.6 ±1.2 |  | 850 mg/kg |  | solubility in cyclohexane and petroleum ether ([6]; cyclohexane, petroleum ether): soluble; solubility in toluene, chloroform, carbon tetrachloride ([6]; toluene, chloroform, carbon tetrachloride): slightly soluble; solubility in water [6]: soluble |
| O=C(O)C(Cl)c1ccc(-c2ccc(F)cc2F)cc1 (centres unmarked) [MR 881, 2-Chloro-2-[p-(2",4"-difluorophenyl)phenyl]acetic acid] | 48.6% | 156.8 ±13.1 | 95% |  |  | 850 mg/kg | soluble | solubility in bicarbonate solutions [6]: soluble; solubility in water [6]: insoluble |
| COC(C(=O)O)c1ccc(-c2ccc(F)cc2F)cc1 (centres unmarked) [MR 883, 2-Methoxy-2-[p-(2^1,4"-difluorophenyl)phenyl]acetic acid] | 52.8% | 144.0 ±17.5 | 98% |  | 25 mg/kg | 2200 mg/kg | soluble | ED50 [2]: 145 mg/kg |
| CCOC(C(=O)O)c1ccc(-c2ccc(F)cc2F)cc1 (centres unmarked) [MR 936, 2-Ethoxy-2-[p-(2",4"-difluorophenyl)phenyl]acetic acid] | 45.8% | 139.7 ±15.2 | 76.7% | 5.7 ±0.8 |  | 1800 mg/kg | soluble | solubility in bicarbonate solutions [6]: soluble |
| COc1ccc2cc([C@H](C)C(=O)O)ccc2c1 [Naproxen, reference compound] |  |  |  |  |  |  |  | % Inhibition versus control ([3]; dose 100 mg/kg): 84%; No. WRITHINGS M̄ ± ES ([3]; dose 100 mg/kg, 10 animals): 4.0 ±1.1 |
| CCCCC1C(=O)N(c2ccccc2)N(c2ccccc2)C1=O [Phenylbutazone] |  |  |  |  | 180 mg/kg |  |  |  |
